Values of other authors as cited in patent publication US20240189323A1, “PREPARATION FOR ETHINYLESTRADIOL-CYCLODEXTRIN COMPLEX AND USE THEREOF” (NATIONAL RESEARCH INSTITUTE FOR FAMILY PLANNING, priority 2022, published 2024).

Conditions: background description

## C#C[C@]1(O)CC[C@H]2[C@@H]3CCc4cc(O)ccc4[C@H]3CC[C@@]21C [ethinylestradiol, 3-hydroxy-19-nor-17α-pregna-1,3,5(10)-trien-20-yn-17-ol]
  solubility in water: almost insoluble in water
